Here are results for 21 compounds from patent publication US5843958A, “Arylpyrazoles as leukotriene inhibitors” (Ortho Pharmaceutical Corporation, priority 1997, dated 1998).

The target in one assay is T1, 5-lipoxygenase (Rattus norvegicus, UniProt P12527).
T1 construct: The pellet was discarded and the supernatant was saved as the source of enzymes; endogenous in cells; host or cells: RBL-1 (rat basophilic leukemia) cells, homogenate supernatant
T1 sequence (P12527 1-673): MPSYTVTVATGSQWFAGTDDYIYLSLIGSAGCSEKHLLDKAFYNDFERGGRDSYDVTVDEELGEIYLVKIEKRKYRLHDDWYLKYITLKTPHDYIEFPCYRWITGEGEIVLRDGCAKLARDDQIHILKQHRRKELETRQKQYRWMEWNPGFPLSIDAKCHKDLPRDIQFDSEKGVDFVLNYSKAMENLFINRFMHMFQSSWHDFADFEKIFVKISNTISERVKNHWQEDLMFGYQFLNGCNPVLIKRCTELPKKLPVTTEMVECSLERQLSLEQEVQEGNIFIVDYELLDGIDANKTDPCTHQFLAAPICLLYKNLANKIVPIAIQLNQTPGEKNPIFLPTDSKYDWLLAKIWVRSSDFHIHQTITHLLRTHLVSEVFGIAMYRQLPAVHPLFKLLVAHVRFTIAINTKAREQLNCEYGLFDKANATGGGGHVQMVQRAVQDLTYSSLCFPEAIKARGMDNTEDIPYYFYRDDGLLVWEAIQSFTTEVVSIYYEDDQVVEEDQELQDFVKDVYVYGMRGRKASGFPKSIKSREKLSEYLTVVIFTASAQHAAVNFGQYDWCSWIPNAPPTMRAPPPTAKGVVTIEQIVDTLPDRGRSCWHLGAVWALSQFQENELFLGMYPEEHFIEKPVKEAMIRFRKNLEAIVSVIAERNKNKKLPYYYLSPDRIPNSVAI
Put plainly: inhibition of 5-HETE production in broken RBL-1 cells (isolated enzyme). In kind it is biochemical. The conditions noted are these: Table A, broken RBL-1 cell supernatant; for inhibition at 3 µM: read-out: Isolated Enzyme % Inhib.; for inhibition at 3 µM / Isolated Enzyme % Inhib.: 3 μM. On the procedure:
(§1) The compounds of the invention were evaluated for their ability to inhibit the production of the arachidonic acid product 5-HETE in broken and whole cell models. Since this is the first step of leukotriene biosynthesis, a reduction in the production of 5-HETE is directly attributable to inhibition of 5-lipoxygenase, where the standard concentration is 3.0 μM. If the IC50 of the whole cell assay is smaller than the IC50 of the broken cell model, it is an indication that the compounds are inhibiting the cooperation of FLAP and 5-lipoxygenase.
Rat basophilic leukemia cells (RBL-1; 5×10^7 viable cells/mL) were disrupted by homogenization on ice (four 20 sec bursts) with a Brinkman polytron. Complete cell breakage was verified microscopically. The homogenate was then centrifuged at 9,220×g for 48 minutes at 4° C. The pellet was discarded and the supernatant was saved as the source of enzymes. The supernatant was pre-incubated for five minutes at 37° C. in the presence of 2 mM of CaCl2 and compound or vehicle (1% DMSO). The conversion of AA into products by CO and LO was initiated by adding 10 μL (50 μCi) of 1-^14 C-AA to each tube and incubated at 37° C. for 20 minutes. The reaction was stopped by adjusting the pH of each sample to 3 to 3.5 with 2M formic acid. Samples were extracted with three volumes of chloroform to isolate the products of 5-LO formed during the reaction. Fractions were dried under nitrogen, then resuspended in 40 μL of chloroform and spotted onto silica gel HL plates. The plates were developed in A-9 solvent. The dried plates were analyzed using a Bioscan Imaging TLC scanner to determine the percentage of radiolabelled AA converted to 5-HETE (LO product) in each sample. The percentage of inhibition was calculated by:
[1-(5-HETE test)]/5-HETE control×100=% inhibition
The IC50 was determined using a curve fit in Cricket Graph (Computer Associated), which provided the equation of the regressed line used in the calculation.

The subject of another assay is 5-LO. The experiment in a line: inhibition of 5-LO (5-HETE production) in intact RBL-1 cells (whole cell). In kind it is cell-based, Rat. The conditions noted are these: Table A. Here is the method:
as §1
The ability to inhibit 5-LO and CO in intact RBL-1 cells was also evaluated. RBL-1 cells were maintained in culture in minimal essential medium (Bio*Whittaker, Walkersville, Md.), containing 12.5% fetal calf serum, 10 mg/mL streptomycin, 10 I.U./mL penicillin G, […] gentamycin and 2 mM L-glutamine (Bio*Whittaker, Walkersville, Md.). Cells were collected by centrifugation, washed once in HBSS, and resuspended at a concentration of 1×10^5 cells/mL. Cells were incubated in the presence of vehicle or drug then centrifuged at 800×g for 10 minutes at 4° C. The supernatant was removed by aspiration and the cells were resuspended in 0.5 mL of HBSS. The reaction was started by the addition of 20 μg/mL of calcium ionophore A 23187 (mixed calcium and magnesium salts, Calbiochem, La Jolla Calif.) and allowed to proceed for 15 minutes, then stopped by plunging the tubes into a slush ice bath. The conversion of AA to 5-LO products was initiated by the addition of 10 μL (50 uCi) of 1-^14 C-AA. Products were isolated by acidification and extraction, followed by thin layer chromatography analysis as described above. Radioactive areas corresponding to authentic 5-LO (5-HETE) and CO (PGD2) products were quantitated by the Bioscan 2000 Imaging System and the IC50 was calculated as above.

In the case of `CCOC(=O)Cc1cc(-c2ccc(Cl)cc2)n(-c2ccc(OCc3ccc4ccccc4n3)cc2)n1` [Cpd 1], on 5-lipoxygenase, the inhibition at 3 µM came out at 29%. The compound also registered an IC50 with 5-LO of 13.4 µM. In the case of `O=C(O)Cc1cc(-c2ccc(Cl)cc2)n(-c2ccc(OCc3ccc4ccccc4n3)cc2)n1` [Cpd 2, 2-[5-(4-Chlorophenyl)-1-(4-(2-quinolyl)methoxyphenyl)-pyrazol-3-yl]acetic acid], at 5-lipoxygenase, the inhibition at 3 µM amounted to 15%. The compound also displayed an IC50 in the assay with 5-LO of 0.39 µM. The like results for `OCCc1cc(-c2ccc(Cl)cc2)n(-c2ccc(OCc3ccc4ccccc4n3)cc2)n1` [Cpd 3] were, in that order, 31% and 1.3 µM. Taken in the same sequence, the figures for `ClCCc1cc(-c2ccc(Cl)cc2)n(-c2ccc(OCc3ccc4ccccc4n3)cc2)n1` [Cpd 4, 3-(2-Chloroethyl)-5-(4-chlorophenyl)-1-[4-(2-quinolyl)methoxyphenyl]pyrazole] were 55% and 5.3 µM.

As for `CN(O)C(=O)OCCc1cc(-c2ccc(Cl)cc2)n(-c2ccc(OCc3ccc4ccccc4n3)cc2)n1` [Cpd 5, 5-(4-Chlorophenyl)-3-[2-(N-hydroxy-N-methylcarbamoyloxy)]ethyl]-1-[4-(2-quinolyl)methoxyphenyl]pyrazole.0.05 Hydrate], on 5-lipoxygenase, the inhibition at 3 µM was found to be 93%. Also, the 50% inhibitory concentration (IC50) in the assay with 5-LO is 1.1 µM. Consider `CN(O)C(=O)CCc1cc(-c2ccc(Cl)cc2)n(-c2ccc(OCc3ccc4ccccc4n3)cc2)n1` [Cpd 7, 3-{5-(4-Chlorophenyl)-N-hydroxy-N-methyl-1-[4-(2-quinolyl)methoxyphenyl]pyrazol-3-yl}propanamide], for which the “Isolated Enzyme % Inhib.” value at 5-lipoxygenase is recorded as 93%. The IC50 was determined as 0.21 µM at 5-lipoxygenase and 0.49 µM in the assay with 5-LO.

Take `O=CCCc1cc(-c2ccc(Cl)cc2)n(-c2ccc(OCc3ccc4ccccc4n3)cc2)n1` [Cpd 8]: on 5-lipoxygenase, the inhibition at 3 µM was 49%. Besides, in the assay with 5-LO, 3.2 µM corresponded to half-maximal inhibition (IC50). `ON=CCCc1cc(-c2ccc(Cl)cc2)n(-c2ccc(OCc3ccc4ccccc4n3)cc2)n1` [Cpd 9, 5-(4-Chlorophenyl)-3-oximino 1-(4-(2-quinolyl)methoxy)phenyl)-pyrazol-3-yl]propanal.0.25 Hydrate]: the inhibition at 3 µM on 5-lipoxygenase was determined as 44%. The compound also displayed an IC50 with 5-LO of 0.55 µM.

For the compound `CC(C)COC(=O)CCc1cc(-c2ccc(Cl)cc2)n(-c2ccc(OCc3ccc4ccccc4n3)cc2)n1` [Cpd 10], the inhibition at 3 µM on 5-lipoxygenase was determined as 34%. Besides, the IC50 with 5-LO amounted to 1.5 µM.

For the compound `Cc1cc(-c2ccc(Cl)cc2)n(-c2ccc(OCc3ccc4ccccc4n3)cc2)n1` [Cpd 11], the inhibition at 3 µM at 5-lipoxygenase came out at 32%. The compound further showed an IC50 with 5-LO of 6.5 µM. With `CCOC(=O)CCc1cc(-c2ccc(Cl)cc2)n(-c2ccc(OCc3ccc4ccccc4n3)cc2)n1` [Cpd 12], the inhibition at 3 µM at 5-lipoxygenase stood at 19%. The compound also had an IC50 in the assay with 5-LO of 7.4 µM. `COc1ccc(-n2nc(CCC(=O)O)cc2-c2ccc(OCc3ccc4ccccc4n3)cc2)cc1` [Cpd 13]: the “Isolated Enzyme % Inhib.” value at 5-lipoxygenase came to 8%. The compound further came in with an IC50 in the assay on 5-LO of 3.9 µM. Taken in the same sequence, the figures for `COc1ccc(-n2nc(CCC(=O)O)cc2-c2ccc(OCc3ccc4ccccc4n3)cc2)cc1` [Cpd 14] were 24% and 2 µM. With `O=C(O)CCc1cc(-c2ccc(Cl)cc2)n(-c2ccc(OCc3ccc4ccccc4n3)cc2)n1` [Cpd 15], the inhibition at 3 µM on 5-lipoxygenase was 0%. In the assay on 5-LO, this compound showed an IC50 of 5.2 µM. For `COc1ccc(-n2nc(CCC(=O)N(C)O)cc2-c2ccc(OCc3ccc4ccccc4n3)cc2)cc1` [Cpd 16], the inhibition at 3 µM on 5-lipoxygenase amounted to 87%. Also, it took 0.54 µM to reach half-maximal inhibition in the assay on 5-LO (IC50). Regarding `COC(=O)CCc1cc(-c2ccc(OCc3ccc4ccccc4n3)cc2)n(-c2ccccc2)n1` [Cpd 17], on 5-lipoxygenase, the inhibition at 3 µM came out at 19%. Same read-out and setting: as for `O=C(O)CCc1cc(-c2ccc(OCc3ccc4ccccc4n3)cc2)n(-c2ccc(Cl)cc2)n1` [Cpd 18], the figure is 0%.

On to `O=C(O)CCc1cc(-c2ccc(OCc3ccc4ccccc4n3)cc2)n(-c2ccccc2)n1` [Cpd 19], for which the inhibition at 3 µM at 5-lipoxygenase amounted to 0%. Consider `OCCCc1cc(-c2ccc(Cl)cc2)n(-c2ccc(OCc3ccc4ccccc4n3)cc2)n1` [Cpd 20], for which the inhibition at 3 µM on 5-lipoxygenase was found to be 21%. Also, in the assay on 5-LO, the 50% inhibitory concentration (IC50) turned out to be 0.84 µM. Regarding `CN(O)C(=O)CCc1cc(-c2ccc(OCc3ccc4ccccc4n3)cc2)n(-c2ccc(Cl)cc2)n1` [Cpd 21], the inhibition at 3 µM at 5-lipoxygenase amounted to 15%.

Consider `CN(O)C(=O)CCc1cc(-c2ccc(Cl)cc2)n(-c2ccc(OCc3ccc4ccccc4n3)cc2)n1` [Cpd 22], for which the inhibition at 3 µM at 5-lipoxygenase was 100%. This compound also showed an IC50 in the assay on 5-LO of 1 µM.
